Entries after “also recorded” stand apart in the source; their conditions may differ. Where two headings read alike, the source gives them in different places.
Tests used:
[1] = test system: amyloid formation from Aβ(1-42) peptides mediated by rat primary microglia; assay: Microglial-facilitated amyloidogenesis (MFA) assay, thioflavin S staining; format: cell-based; conditions: for amyloid formation mediated by microglia (thioflavin S staining) / amyloid formation mediated by rat primary microglia (thioflavin S staining): 37° C., 18 hours; for amyloid formation mediated by rat primary microglia (thioflavin S staining): 0.32 μM or 3.2 μM
Experimental: Primary rat brain microglia prepared as described in Example 1, were plated into Falcon black/clear 96 well plates at a concentration of 2×10^5 cells per well. The microglia were allowed to attach to cell walls after incubation at 37° C. for several hours to overnight. Fresh DMEM, with 10% fetal bovine serum, 0.1% penicillin/streptomycin and L-glutamine at 200 mM was used to replace the old media, while cells were gently washed to remove debris and dead cells.
[…] (The pre-treatment step is optional.) After pre-treatment, the candidate compound and Aβ (1-42) peptides were added to the pre-treated cells. The final concentration of Aβ (1-42) peptides was 10 μM. […] The final volume for each well was about 100 μl/well.
Aβ (1-42) peptides and Aβ (1-40) peptides, obtained from American Peptides of Sunnyvale, Calif., were stored at −20° C. Before use, Aβ (1-42) peptides were allowed to warm to room temperature for 15 minutes. To dissolve the Aβ (1-42) peptides, 200 μl of sterile water was added to the peptides. Each sample of peptides was vortexed to dissolve the peptides. Each sample was then diluted with 19 mls of MSFM. The final concentration of Aβ (1-42) peptides was 10 μM.
[…] After incubation, microglia were fixed with 100 μl of 95% ethanol and 5% acetic acid, which was directly poured into the media, and then incubated for 5 min. The media were poured out, and another 100 μl of fresh fixative having 95% ethanol and 5% acetic acid was added to the microglia for 10 min.
Fixed cells were stained with 100 μl thioflavin S solution, obtained from Sigma of St Louis, Mo. for approximately 3-5 min. Thioflavin S solution was 0.125 mg/ml in 40% ethanol, filtered through #1 Whatman filter paper before use.
Cells were washed twice, each time for 5 min, with 100 μl of 70% ethanol. After the washes, the cells were examined using an FITC filter under a fluorescent microscope. For each well, 3 images were collected and images were captured on a Zeiss Axiovert 100 M, with a 10× objective, using a digital CCD camera, and using MicroMax obtained from Roper Instruments of Tuscon, Ariz. Each treatment condition was run in triplicate, with 3 images collected per well to avoid areas with sparse cell growth and debris. Relative fluorescence intensity was measured.

[2] = test system: rat primary microglia; assay: Microglial viability, MTT reaction product
Experimental: The viability of microglia was also determined by measuring the level of the tetrazolium salt 3,[4,5-dimethylthiazol-2-yl]-2,5-diphenyltetrazolium bromide (MTT) reaction product, using the method provided by Trevigen Inc. of Gaithersburg, Md.

[3] = test system: intracellular cAMP in rat primary microglia; assay: Level of intracellular cAMP in microglia; format: cell-based; conditions: 1 μM, about 20 minutes
Experimental: The effect on the level of intracellular cAMP in microglia by PGE2 was also investigated. Rat primary microglia were prepared using the methods described in Example 1, and were exposed to PGE2, at a concentration of 1 μM, for about 20 minutes. […] Microglial viability was investigated by measuring the MTT reaction product in microglia.

[4] = 32 nM-10 μM, one hour prior to 10 μM Aβ(1-42)
[5] = Example 15, prostaglandin E2 receptor agonists

With `CC(C)(C)c1ccc(CN(Cc2cccc(OCC(=O)O)c2)S(=O)(=O)c2cccnc2)cc1` [Compound I, (3-{[(4-tert-Butyl-benzyl)-(pyridine-3-sulfonyl)-amino]-methyl}-phenoxy)-acetic acid] the “amyloid formation mediated by microglia (thioflavin S staining)” value (shortened to “amyloid formation mediated by microglia”) [1, 4] was “inhibited”.
With `CCCCc1ccc(CN(CCCCCCC(=O)O)S(C)(=O)=O)cc1` [Compound II] the “amyloid formation mediated by microglia” value [1, 4] was “inhibited”.
`NC[C@H](O)c1ccc(O)c(O)c1` [Norepinephrine] was tested, and the cell-mediated amyloidogenesis ([1]; conditions not given) was “blocks”.
For `CCCCC[C@H](O)/C=C/[C@H]1[C@H](O)CC(=O)[C@@H]1C/C=C\CCCC(=O)O` [PGE2, Prostaglandin E2], the “microglial viability (MTT reaction product)” value (“microglial viability” below) [2] was “did not lead to any decrease”, the “level of intracellular cAMP in microglia” value [3] was “significantly increased” and the “level of intracellular cAMP in microglia” value ([3]; listed as prostaglandin subtype EP2) was “increases”. For the same compound, the “amyloid formation mediated by rat primary microglia (thioflavin S staining)” value ([1]; from one hour prior to 10 μM Aβ(1-42)) was “able to reduce” and the “amyloid formation mediated by rat primary microglia (thioflavin S staining)” value ([1]; from one hour prior to 10 μM Aβ(1-42), listed as prostaglandin EP2 sub-type) was “inhibitory effect”.
For `CC(C)c1c(C(=O)Nc2ccccc2)c(-c2ccccc2)c(-c2ccc(F)cc2)n1CC[C@@H](O)C[C@@H](O)CC(=O)O` [atorvastatin], the “result in the MFA assay” value ([1]; conditions not given) was “very positively”.
In the case of `CCCC1([C@H](O)C/C=C/[C@H]2[C@H](O)CC(=O)[C@@H]2CCCCCCC(=O)OC)CCC1` [butaprost], the “microglial viability” value [2, 5] is reported as “neither butaprost nor sulprostone had any effect” and the “amyloid formation mediated by microglia” value [1, 4] is reported as “inhibit”.
With `CCCC(=O)Nc1ncnc2c1ncn2[C@@H]1O[C@@H]2COP(=O)(O)O[C@H]2[C@H]1OC(=O)CCC` [db-cAMP, dibutyryl-cAMP] the “microglial viability” value ([2]; Example 13, cAMP analogs) was “neither db-cAMP nor 8-Br cAMP had any effect” and the “amyloid formation mediated by microglia” value ([1]; db-cAMP 8-80 μM, 8-Br cAMP 25-250 μM, from one hour prior to 10 μM Aβ(1-42)) was “inhibited; also recorded: inhibition”.
In the case of `CC[C@H](C)C(=O)O[C@H]1C[C@@H](C)C=C2C=C[C@H](C)[C@H](CC[C@@H]3C[C@@H](O)CC(=O)O3)[C@H]21` [lovastatin], the “result in the MFA assay” value ([1]; conditions not given) is reported as “very positively”.
With `CC[C@H](C)C(=O)O[C@H]1CCC=C2C=C[C@H](C)[C@H](CC[C@@H]3C[C@@H](O)CC(=O)O3)[C@H]21` [mevastatin] the “result in the MFA assay” value ([1]; conditions not given) was “very positively”.
With `CS(=O)(=O)NC(=O)CCC/C=C\C[C@H]1C(=O)C[C@@H](O)[C@@H]1/C=C/[C@@H](O)COc1ccccc1` [sulprostone] the “microglial viability” value [2, 5] was “neither butaprost nor sulprostone had any effect”.
